Experimental data from patent US7259232B1, “Preferred segments of neural thread protein” (Nymox Pharmaceutical Corporation, priority 2000, dated 2007).

Assays:
rabbit IgG = test: Precipitation of rabbit immunoglobulin by Harlil peptide (Example 3); details: start 3.4 mg RGG + 1 mg NTP-3, pH 7, dialyzed overnight
Procedure: The purpose of this example was to show the self-aggregation ability of a Harlil peptide. The Harlil peptide NTP-3 forms disulfide bonds (because of the cysteine residue) and dimerizes at neutral pH. Since the dimerized peptide can bind two immunoglobulins, it can cause precipitation.
1 mg of the Harlil peptide NTP-3 in 1 mL of dimethylsulfoxide (DMSO) was added to 3.4 mg of rabbit IgG (Jackson Immunoresearch, West Grove, Pa.) at pH 7. The mixture was allowed to dialyze over night, and a clear white precipitate was observed the next morning. The precipitate was removed by centrifugation and the protein concentration of the supernatant was determined by absorbance at 280 nm using a Perkin Elmer spectrophotometer model Lambda 3B. Precipitation of immunoglobulin is prevented at a low pH, e.g., pH of 3.5 or less 3.5.

NTP [1] = test: NTP immunoreactivity of Harlil peptides conjugated to rabbit IgG (Example 1); format: binding; details: peptides conjugated to maleimide activated Rabbit IgG
From the text: The following Harlil sequences were synthesized (Synpep, Dublin Calif.) and conjugated to maleimide activated Rabbit IgG (Jackson Immunoresearch, West Grove Pa.) and assessed for their NTP immunoreactivity. […] (SEQ ID NOS 4-11, respectively, in order of appearance)
Conjugation to carrier proteins was through a cysteine. Thus, peptides NTP-1 and NTP-2 produced mixed conjugate results because there is more than one cysteine residue. Therefore, for peptides NTP-5 and NTP-6, the secondary cysteine was blocked with ACM.

[2] = test system: NTP3-RGG coated microtiter plate; test: Microtiter plate assay: inhibition of conjugate binding to Harlil peptide coated plate (Example 5); details: monomer (unconjugated) peptide; peroxidase conjugated rabbit IgG; FIG. 2
Procedure: Preparation of Microtiter Plate: The Harlil peptide/immunoglobulin complex NTP3-RGG, in a ratio of 30:1 and prepared as in Example 4, was coated on an Immulon 4 microtiter plate (Dynex, Chantilly, Va.) at a concentration of 0.5 μg/well.
Standards: Recombinant NTP in TBS (described in de la Monte et al., J. of Neuropath. Exp. Neurol., 55:1038-1050 (1996)). 0.01% azide (Nymox Pharm. Corp., Lot 4-7-98), was serially diluted into TBS. 100 μl of each dilution was incubated at pH 3.5 for one hour. The dilutions were then washed for fifteen minutes in TBS, 0.1% albumin, and 0.05% Tween 80. This was followed by 3 washes in TBS and 0.05% Tween 80. Microtiter Plate Assay: 100 μl of 1:8000 dilution of peroxidase conjugated rabbit IgG (Jackson Immunoresearch, West Grove, Pa.) was then added and allowed to react for 30 minutes. The microtiter plate was washed twice with TBS and 0.05% Tween 80, followed by the addition of 150 μl of […] (TMB) (Serex Inc., Maywood, N.J.). The mixture was then incubated for 10 min. and stopped with 50 μl of 2 N HCl. Absorbance was read in a SLT 340 ATTC spectrophotometer.

NTP [3] = test: Affinity purification of NTP from AD patient urine on NTP-3 agarose column, activity by 7C Gold strip (Example 2); format: binding, human; details: pH 2 eluate, gel bands assayed with 7C Gold, activity only in 35-45 kD band
Procedure: Preparation of the Urine Sample Containing NTP for Testing: The biological source of NTP used was the urine of a patient (BOU1) diagnosed with AD. Before application to the column material, the biological sample was processed according to the following protocol for processing of urine for AD testing: • 1. The urine was tested with an Ames Multistix™ (Bayer, Ind.). […] The urine was centrifuged at 3000×g for 15 minutes to remove cellular debris. • 3. The urine was filtered using a syringe through a 0.22 μm cellulose acetate filter, and the filtrate was brought to 0.05% azide. • 4. The resultant aliquot was placed in the top reservoir of an Amicon Centricon® YM-10 Millipore, and centrifuged at 3000×g for one hour. • 5. […] Protein Concentration: The protein concentration in the eluate was 108 μg, as determined by Coomassie Blue staining (BioRad, Hercules, Calif.). […] Protein concentration was 145 μg, as determined by Bicinchoninic Acid Kit (Cat. # 23223, BioRad). Absorbance corrected for the buffer at 280 nm was 390, indicating 390 μg of protein. The larger protein amount obtained with absorbance measurement is likely a result of the presence of a large amount of aromatic amino acids in NTP, which can cause overestimation of protein using this measurement technique. […]

NTP [4] = test: Protein G column pass-through of NTP positive and negative samples (Example 7); format: binding; details: NTP positive and negative samples passed through Protein G column; NTP not significantly reduced
From the text: Protein G binds antibody through the Fc region. […] Specifically, since Harlil peptides recognize Harlil peptides, Harlil peptides recognize the Fc region of antibody, and Protein G recognizes the Fc region of antibody, this experiment determined whether Protein G recognizes NTP.
Both an NTP positive and an NTP negative sample were passed through a Protein G column.

Sequence of NTP (as listed by the source): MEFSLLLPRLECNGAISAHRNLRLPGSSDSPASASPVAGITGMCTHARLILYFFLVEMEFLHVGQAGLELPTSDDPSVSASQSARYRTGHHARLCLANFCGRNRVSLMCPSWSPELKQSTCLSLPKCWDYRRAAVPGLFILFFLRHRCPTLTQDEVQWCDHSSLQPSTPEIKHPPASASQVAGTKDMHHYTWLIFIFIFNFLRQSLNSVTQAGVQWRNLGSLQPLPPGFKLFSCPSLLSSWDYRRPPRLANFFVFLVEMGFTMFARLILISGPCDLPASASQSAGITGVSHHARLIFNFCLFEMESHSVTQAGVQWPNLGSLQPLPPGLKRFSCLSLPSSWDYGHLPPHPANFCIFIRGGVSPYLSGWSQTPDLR

Molecule	% Protein Precipitated (rabbit IgG) [%]	NTP immunoreactivity (NTP [1])	inhibition of conjugate binding to the plate [2]	binding of NTP by NTP-3 affinity column (NTP [3])	binding of Protein G to NTP (NTP [4])
C A R Y R T G H H A R L M (CARYRTGHHARLM) [NTP-3]	39	good reactivity	inhibits the binding of conjugate to the plate	selectively bound the NTP protein	–
Protein G: Protein G, binds antibody through the Fc region; used as column (protein) TYKLILNGKTLKGETTTEAVDAATAEKVFKQYANDNGVDGEWTYDDATKTFTVTEKPEVIDASELTPAVTTYKLVINGKTLKGETTTKAVDAETAEKAFKQYANDNGVDGVWTYDDATKTFTVTE	–	–	–	–	does not bind to NTP
